Measurements reported in patent US20240293379A1, “THERAPEUTIC AGENT FOR CANCER OF PATIENT WITH DECREASE IN RB1 FUNCTION USING MYT1 INHIBITOR AND CHEMOTHERAPEUTIC AGENT IN COMBINATION, AND TREATMENT METHOD THEREOF” (Chugai Seiyaku Kabushiki Kaisha, priority 2022, published 2024).
Like-named read-outs stand apart in the source and are kept apart here.

Tested on: NCI-H661
Assay: Pemetrexed cytotoxicity test upon suppression of expression of MYT1
Type: cell-based
Conditions: Homo sapiens, NCI-H661 (RB1 wild-type), 7 days
Method: Thereafter, the plates were shaken to transfect each siRNA at a final concentration of 10 nM.
The −Log 2 value of fold change of IC50 and the maximum value of Bliss score, which are indexes of the combination effect, were calculated by comparing with the actually obtained cell survival curve, and described in Table 6 (see Non Patent Literature 9).

What does the source list for `Nc1nc2[nH]cc(CCc3ccc(C(=O)N[C@@H](CCC(=O)O)C(=O)O)cc3)c2c(=O)[nH]1` [pemetrexed]?
IC50 (read-out: IC50 of pemetrexed, MYT1 #16, MYT1 siRNA #16 10 nM): 45.7 nM; IC50 (read-out: IC50 of pemetrexed, MYT1 #18, MYT1 siRNA #18 10 nM): 129 nM; IC50 (read-out: IC50 of pemetrexed, NT, negative control siRNA 10 nM): 315 nM
